Measured values: patent US20160264616A1, “THERAPEUTIC COMPOUNDS AND METHODS” (priority 2015, published 2016)
Where two headings read alike, the source gives them in different places.

Key:
[1] = target: T1, Gαo:RGS17 protein:protein interaction (Homo sapiens, UniProt Q9UGC6); assay: AlphaScreen Gαo:RGS17 protein:protein interaction assay (HTS and dose-response); assay type: binding; conditions: for inhibition of the interaction of RGS17 with Gαo: AlphaScreen dose-response, n=3 in triplicate; for inhibition at 100 µM: read-out: inhibition of the AlphaScreen assay
T1 construct: This is the same RGS17 construct used in the high throughput screening campaign that is fully active despite the N-terminal truncation; made in house; host or cells: BL21 (DE3) E. coli for Gαo
T1 sequence (Q9UGC6 84-200 limits assumed): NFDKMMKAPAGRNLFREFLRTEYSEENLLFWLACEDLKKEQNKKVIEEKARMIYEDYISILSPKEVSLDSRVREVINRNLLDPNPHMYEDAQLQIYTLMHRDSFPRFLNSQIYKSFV
Procedure: The primary biochemical screen was designed to identify compounds that function as inhibitors of the Gαo:RGS17 ppi. This was accomplished by miniaturizing our previously published HTS paradigm in a 1536-well format (17). […] We interrogated the 2320 compound containing MicroSource […] Diversity library (Discovery Systems, Inc. Gaylordsville, Conn.) (FIG. 3).
In total, 2,320 compounds from the MicroSource […] chemical library were screened at a concentration of 40 μM. Two 1536-well plates containing 1,280 compounds and 128 wells of DMSO controls were used. RGS17-anti-GST and Gαo-biotin-streptavidin beads were prepared as previously described. In brief, 100 μg (20 μL) of beads were coupled to 20 ng (10 nM) of each binding partner (Gαo:RGS17) and incubated for 30 min on ice. Then, 4.5 μL of RGS17-anti-GST beads were added using a FlexDrop IV (PerkinElmer, Waltham, Mass.) and incubated for 10 min with compound while the Gαo-biotin-streptavidin beads were incubated with AMF. After incubation, 4.5 μL of the Gαo-biotin-streptavidin bead/protein mixture was added to compound containing wells and incubated on ice for 1.25 hours and read at room temperature using the EnVision plate reader with monochromators.
Experiments were carried out similarly to the high-throughput AlphaScreen assay except this was completed using Corning 384-well white flat bottom plates and the final total volume was 60 μL, with 20 µL of Gαo-biotin-streptavidin and RGS17-anti-GST beads at a final concentration of 10 nM. Then, 20 μL of compounds in a half log dilution series to yield a final range from 1 nM to 100 μM was added to RGS17-anti-GST beads and incubated for 10 min in the dark on ice. Next, 20 μL of Gαo-biotin-streptavidin beads were then added in the presence of AMF and GDP. Negative controls were determined in the absence of AMF and compound. Maximum binding was determined in the absence of compounds but in the presence of AMF and GDP.

[2] = target: T2, RGS17 (Homo sapiens, UniProt Q9UGC6); assay: Isothermal titration calorimetry (ITC); assay type: binding; conditions: for Gibbs free energy of binding / binding enthalpy ΔH / entropic component TΔS / Kd: ITC; for Kd: 25 C, read-out: dissociation constant (Kd)
T2 construct: This is the same RGS17 construct used in the high throughput screening campaign that is fully active despite the N-terminal truncation; made in house
T2 sequence (Q9UGC6 84-200 limits assumed): T1 sequence (Q9UGC6 84-200 limits assumed)
Procedure: ITC was used to determine the binding properties of the lead compounds in solution by determining the dissociation constant (Kd) and stoichiometry (n) of the interaction between RGS17 and the inhibitor compounds.
RGS17 was concentrated in ITC sample buffer (50 mM HEPES pH 7.5, 100 mM NaCl and 1 mM beta-mercaptoethanol) at 50 μM. […] DMSO concentration in both compound and RGS17 sample was 1%, to account for any DMSO effects. Total injections for UI-1956 were set to 5 μL with a duration time of 10 secs and spacing of 240 secs and for UI-5 were set to 12 μL with a duration time of 24 secs and spacing of 240 secs. The total amount of injections for UI-1956 and UI-5 were, 32 and 23 respectively. All experiments were conducted on a GE MicroCal VP-ITC System (General Electric; Piscataway, N.J.) at 25 C. Heats of dilution were determined by averaging the heat evolved by the last five injections and subtracted from the raw data. The values for affinity, stoichiometry and change in enthalpy were then determined using the ORIGIN software provided by the manufacturer.

[3] = target: T2, RGS17; assay: MALDI-TOF mass spectrometry for covalent adducts; conditions: two-fold molar excess of compound, one hour
Procedure: Matrix-assisted laser desorption ionization time of flight (MALDI-TOF) mass spectrometry was employed to evaluate if lead compounds were capable of covalently modifying RGS17's RGS homology domain. Covalent adducts on RGS17 were not detected with any compounds using two-fold molar excess of compound when incubated for one hour with RGS17ΔN (FIG. 8). For all samples, the only species that were observed were singly and doubly charged unmodified, intact protein with mass-to-charge ratios of […], respectively.
Following treatment with compound, buffer was exchanged for 25 mM ammonium bicarbonate using an Amicon Ultra 10K 0.5 mL centrifugal filtration device (Millipore, Billerica, Mass.). Intact protein molecular weight was then assessed by matrix-assisted laser desorption/ionization-time of flight (MALDI-TOF) mass spectrometry. This was accomplished using a Bruker ultrafleXtreme in the linear TOF mode, employing 384-well Anchor chip targets (Billerica, Mass.). MALDI matrix reagents sinapinic acid and alpha-Cyano-4-hydroxycinnamic acid, purchased from Bruker, were reconstituted to 5 mg/ml in a 1:1 solution of acetonitrile and aqueous 0.1% formic acid (Billerica, Mass.). Samples in ammonium bicarbonate were diluted to 5 μM in aqueous 0.1% formic acid and introduced to target as a 1:1 solution of protein sample to MALDI matrix buffer. After crystal drying, samples were desalted on the target plate using aqueous 0.1% TFA. The laser was configured to emit pulses at 200 Hz at an optimal wavelength of 355 nm, and input energy of 500 μJ/pulse was attenuated 80-90%. Mass scale was calibrated using horse heart myoglobin, and 2000 shots were acquired per spectra.

[4] = target: RGS4 (Homo sapiens, UniProt P49798); assay: Selectivity versus RGS4; assay type: biochemical
Procedure: Characterization of UI-5, UI-1590 and UI-1956 to determine mechanism of action focused initially on the determination of the potential irreversible modification of the RGS protein by the compounds. […] These compounds were tested for selectivity versus RGS4 which was chosen as a model protein due to its high level of sensitivity to thiol modification (18).

Sequence of RGS4 (P49798 whole entry, species assumed): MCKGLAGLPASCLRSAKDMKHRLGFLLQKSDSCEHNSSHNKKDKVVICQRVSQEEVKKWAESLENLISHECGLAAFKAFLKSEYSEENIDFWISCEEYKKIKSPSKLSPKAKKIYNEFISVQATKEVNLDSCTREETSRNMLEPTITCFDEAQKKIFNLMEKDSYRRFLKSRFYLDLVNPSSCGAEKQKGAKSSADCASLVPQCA

Row | Compound | inhibition of the interaction of RGS17 with Gαo [1] | inhibition at 100 µM [1] [%] | dissociation constants as determined by isothermal titration calorimetry (summary) [2] | Gibbs free energy of binding [2] [kcal/mol] | binding enthalpy ΔH [2] [kcal/mol] | entropic component TΔS [2] [kcal/mol] | Kd [2] [nM] | covalent adducts on RGS17 [3] | inhibition of RGS4 [4] | selectivity RGS17 versus RGS4 [4] | inhibition at 100 µM ([1]; 100 μM compound, from dose-response experiments) [%]
1 | C[n+]1cc2c3c(ccc2c2ccc4cc5c(cc4c21)OCO5)OCO3 [UI-5] | dose dependent manner | > 25 | low μM to nM | -8.168 | -0.148 | 8.0202 | 1020 | did not form adducts | inhibited both RGS-4 and RGS-17 | more selective for RGS17 | –
2 | CC1=C(O)C(=O)C=C2C1=CC=C1[C@@]2(C)CC[C@@]2(C)[C@@H]3C[C@](C)(C(=O)O)CC[C@]3(C)CC[C@]12C [UI-1590] | dose dependent manner | > 25 | low μM to nM | – | – | – | – | did not form adducts | inhibited both RGS-4 and RGS-17 | more selective for RGS17 | –
3 | CC(C)=CCC[C@]1(C)C=Cc2c(O)c3c(c(CC=C(C)C)c2O1)O[C@]12C(=C[C@@H]4C[C@H]1C(C)(C)O[C@@]2(C/C=C(/C)C(=O)O)C4=O)C3=O [UI-1907] | dose dependent manner | > 25 | – | – | – | – | – | – | – | – | –
4 | O=c1c(-c2cc(O)c(O)c(O)c2)coc2cc(O)c(O)c(O)c12 [UI-1956, 5,6,7-trihydroxy-3-(3,4,5-trihydroxyphenyl)-4H-chromen-4-one] | dose dependent manner | – | low μM to nM | -8.389 | -2.158 | 6.2313 | 714 | did not form adducts | – | selective for RGS17 | > 25
